Data set [1] has as its system Candida albicans. The data set is described as follows: Synergistic antifungal activity against FLC-resistant Candida albicans 10 assessed as fungal growth inhibition incubated for 48 hrs in presence of FLC by broth microdilution method. It is filed as functional.
The subject of data set [2] is Candida albicans. The data set is described as follows: Synergistic antifungal activity against FLC-resistant Candida albicans 819 assessed as MIC of FLC incubated for 48 hrs by broth microdilution method. It is filed as functional.
In data set [3] the test system is Candida albicans. The data set is described as follows: Synergistic antifungal activity against FLC-resistant Candida albicans 5740 assessed as fungal growth inhibition incubated for 48 hrs in presence of FLC by broth microdilution method. It is filed as functional.
Data set [4] concerns Candida albicans. The data set is described as follows: Synergistic antifungal activity against FLC-resistant Candida albicans 249 assessed as fungal growth inhibition incubated for 48 hrs in presence of FLC by broth microdilution method. It is filed as functional.
The subject of data set [5] is Candida albicans. The data set is described as follows: Synergistic antifungal activity against FLC-resistant Candida albicans 379 assessed as fungal growth inhibition incubated for 48 hrs in presence of FLC by broth microdilution method. It is filed as functional.
The test system of data set [6] is Candida albicans. The data set is described as follows: Synergistic antifungal activity against FLC-resistant Candida albicans 14 assessed as fractional inhibitory concentration index incubated for 48 hrs in presence of FLC by broth microdilution method. It is filed as functional.
The subject of data set [7] is Candida albicans. The data set is described as follows: Synergistic antifungal activity against FLC-resistant Candida albicans 304103 assessed as fractional inhibitory concentration index incubated for 48 hrs in presence of FLC by broth microdilution method. It is filed as functional.
The subject of data set [8] is Candida albicans. The data set is described as follows: Synergistic antifungal activity against FLC-resistant Candida albicans 819 assessed as fractional inhibitory concentration index incubated for 48 hrs in presence of FLC by broth microdilution method. It is filed as functional.
Data set [9] in a line: Half life in Sprague-Dawley rat at 2 mg/kg, iv by LC-MS/MS analysis. It is filed as ADME, organism-based. The note with it: in vivo.
The test system of data set [10] is Candida albicans. The data set is described as follows: Synergistic antifungal activity against FLC-resistant Candida albicans 8 assessed as fractional inhibitory concentration index incubated for 48 hrs in presence of FLC by broth microdilution method. It is filed as functional.
Data set [11] deals with Candida albicans. The data set is described as follows: Synergistic antifungal activity against FLC-resistant Candida albicans 64548 assessed as fractional inhibitory concentration index incubated for 48 hrs in presence of FLC by broth microdilution method. It is filed as functional.
For data set [12], the system named is Candida albicans. The data set is described as follows: Synergistic antifungal activity against FLC-resistant Candida albicans 395 assessed as fractional inhibitory concentration index incubated for 48 hrs in presence of FLC by broth microdilution method. It is filed as functional.
Data set [13] relates to Candida albicans. The data set is described as follows: Antifungal activity against Candida albicans SC5314 infected in C57BL/6 mouse assessed as mean fungal burden at 2 mg/kg, ip measured after 46 hrs in presence of FLC by plate count method (reference value: 6.902 log10CFU/ml). It is filed as functional.
The test system of data set [14] is Candida albicans. The data set is described as follows: Synergistic antifungal activity against FLC-resistant Candida albicans 710452 assessed as fungal growth inhibition incubated for 48 hrs in presence of FLC by broth microdilution method. It is filed as functional.
Data set [15] concerns Candida albicans. The data set is described as follows: Synergistic antifungal activity against FLC-resistant Candida albicans 305 assessed as fungal growth inhibition incubated for 48 hrs in presence of FLC by broth microdilution method. It is filed as functional.
In data set [16] the test system is Candida albicans. The data set is described as follows: Synergistic inhibition of hypha formation in Candida albicans SC5314 at 4 to 16 ug/ml incubated for 3 hrs in presence of FLC by inverted phase contrast microscopy. Particulars: dose 4-16 µg/ml. It is filed as functional, organism-based.
Data set [17] concerns Candida albicans. The data set is described as follows: Synergistic antifungal activity against FLC-resistant Candida albicans 710419 assessed as MIC of FLC incubated for 48 hrs by broth microdilution method. It is filed as functional.
The subject of data set [18] is Candida albicans. The data set is described as follows: Synergistic antifungal activity against FLC-resistant Candida albicans 379 assessed as MIC of FLC incubated for 48 hrs by broth microdilution method. It is filed as functional.
Data set [19] relates to Candida albicans. The data set is described as follows: Synergistic antifungal activity against FLC-resistant Candida albicans 710452 assessed as MIC of FLC incubated for 48 hrs by broth microdilution method. It is filed as functional.
Data set [20] in a line: Toxicity in C57BL/6 mouse infected with Candida albicans SC5314 assessed as animal survival at 2 mg/kg, ip measured after 20 days relative to control. It is filed as organism-based. Particulars: in vivo, 480 h, time 20 day.
Data set [21] has as its system Candida albicans. The data set is described as follows: Synergistic antifungal activity against FLC-resistant Candida albicans 953 assessed as fungal growth inhibition incubated for 48 hrs in presence of FLC by broth microdilution method. It is filed as functional.
The test system of data set [22] is Candida albicans. The data set is described as follows: Synergistic antifungal activity against FLC-resistant Candida albicans 305 assessed as fractional inhibitory concentration index incubated for 48 hrs in presence of FLC by broth microdilution method. It is filed as functional.
For data set [23], the system named is Candida albicans. The data set is described as follows: Synergistic antifungal activity against FLC-resistant Candida albicans 605141 assessed as MIC of FLC incubated for 48 hrs by broth microdilution method. It is filed as functional.
Data set [24] deals with Candida albicans. The data set is described as follows: Synergistic antifungal activity against FLC-resistant Candida albicans 646 assessed as fungal growth inhibition incubated for 48 hrs in presence of FLC by broth microdilution method. It is filed as functional.
Data set [25] relates to Candida albicans. The data set is described as follows: Synergistic antifungal activity against FLC-resistant Candida albicans 17 assessed as fractional inhibitory concentration index incubated for 48 hrs in presence of FLC by broth microdilution method. It is filed as functional.
Data set [26] concerns Candida albicans. The data set is described as follows: Synergistic antifungal activity against FLC-resistant Candida albicans 710513 assessed as fractional inhibitory concentration index incubated for 48 hrs in presence of FLC by broth microdilution method. It is filed as functional.
Data set [27] deals with Candida albicans. The data set is described as follows: Synergistic antifungal activity against FLC-resistant Candida albicans 249 assessed as MIC of FLC incubated for 48 hrs by broth microdilution method. It is filed as functional.
Data set [28] concerns Candida albicans. The data set is described as follows: Synergistic antifungal activity against FLC-resistant Candida albicans 538 assessed as MIC of FLC incubated for 48 hrs by broth microdilution method. It is filed as functional.
Data set [29] relates to Candida albicans. The data set is described as follows: Synergistic antifungal activity against FLC-resistant Candida albicans 10 assessed as fractional inhibitory concentration index incubated for 48 hrs in presence of FLC by broth microdilution method. It is filed as functional.
In data set [30] the test system is Candida albicans. The data set is described as follows: Synergistic antifungal activity against FLC-resistant Candida albicans 1221 assessed as fungal growth inhibition incubated for 48 hrs in presence of FLC by broth microdilution method. It is filed as functional.
Data set [31] deals with Candida albicans. The data set is described as follows: Synergistic antifungal activity against FLC-resistant Candida albicans 710554 assessed as MIC of FLC incubated for 48 hrs by broth microdilution method. It is filed as functional.
Data set [32] relates to Candida albicans. The data set is described as follows: Synergistic antifungal activity against FLC-resistant Candida albicans 710554 assessed as fungal growth inhibition incubated for 48 hrs in presence of FLC by broth microdilution method. It is filed as functional.
Data set [33] has as its system Candida albicans. The data set is described as follows: Synergistic antifungal activity against FLC-resistant Candida albicans 710513 assessed as fungal growth inhibition incubated for 48 hrs in presence of FLC by broth microdilution method. It is filed as functional.
Data set [34] in a line: AUC (0 to infinity) in Sprague-Dawley rat at 2 mg/kg, iv by LC-MS/MS analysis. Also noted: dose 2 mg/kg, route iv. The note with it: in vivo. It is filed as ADME, organism-based.
The nature of data set [35]: Cmax in Sprague-Dawley rat at 5 mg/kg, po by LC-MS/MS analysis. Particulars: in vivo. Further details: dose 5 mg/kg, route po. It is filed as ADME, organism-based.
Data set [36] concerns Candida albicans. The data set is described as follows: Synergistic antifungal activity against FLC-resistant Candida albicans 953 assessed as fractional inhibitory concentration index incubated for 48 hrs in presence of FLC by broth microdilution method. It is filed as functional.
A short description of data set [37]: Toxicity in C57BL/6 mouse infected with Candida albicans SC5314 assessed as animal death at 0.25 mg/kg, ip measured after 7 days. It is filed as organism-based. The note with it: in vivo, 168 h, time 7 day.
Data set [38] has as its system Candida albicans. The data set is described as follows: Antifungal activity against Candida albicans SC5314 infected in C57BL/6 mouse assessed as mean fungal burden at 0.25 mg/kg, ip measured after 46 hrs by plate count method (reference value: 6.902 log10CFU/ml). It is filed as functional.
Data set [39] is described as follows: Toxicity in C57BL/6 mouse infected with Candida albicans SC5314 assessed as animal death at 2 mg/kg, ip measured after 7 days. It is filed as organism-based. The note with it: in vivo, 168 h, time 7 day.

SMILES strings stand for the structures. Active and inactive are the calls of the source. No cut-off for these calls is given here.

Take `CCN(CC)c1ccc(C(NC(=O)C(C)C)c2ccc3cccnc3c2O)cc1` (centres undefined): the MIC in [1] is 8 ng/mL; in data set [2], 0.25 µg/mL; in data set [3], 0.016 µg/mL; in [4] it was 8 ng/mL; in data set [5], 8 ng/mL; in data set [14], 0.016 µg/mL. In addition, the MIC in data set [15] amounted to 0.016 µg/mL; in data set [17], 0.25 µg/mL; in [18] it was 1 µg/mL; in data set [19], 0.25 µg/mL; in data set [21], 0.016 µg/mL; in data set [23] it was 0.125 µg/mL. In addition, the MIC in data set [24] is 0.016 µg/mL; in data set [27], 0.125 µg/mL; in data set [28] it was 2 µg/mL; in data set [30], 0.031 µg/mL; in [31] it was 0.5 µg/mL; in data set [32] it was 0.031 µg/mL. Besides, the MIC in [33] stood at 0.016 µg/mL. Also, the “fractional inhibitory concentration index (FICI)” value is on record as 0.133 in data set [6]; 0.047 in data set [7]; 0.133 in data set [8]; 0.252 in data set [10]; 0.063 in [11]; 0.133 in [12]. Moreover, the “fractional inhibitory concentration index (FICI)” value in data set [22] is given as 0.039; in data set [25], 0.035; in data set [26], 0.039; in data set [29], 0.07; in data set [36] it was 0.032. This molecule gave a half-life in data set [9] of 317 min. Besides, the Activity in data set [13] is listed as 5.244 log10CFU/ml. In addition, in data set [16], the inhibition result is “Active”. The Survival in data set [20] was determined as 20%. In addition, the AUC(0-inf) in data set [34] stood at 1110 ng·h/mL. In [35], this molecule returned a Cmax of 239 ng/mL.

For the molecule `OC(Cn1cncn1)(Cn1cncn1)c1ccc(F)cc1F` [FLUCONAZOLE], the results for the Activity entry in [37] and in data set [38] were “Toxic” and 5.66 log10CFU/ml, respectively.

As for `Oc1c(I)cc(Cl)c2cccnc12` [CLIOQUINOL], the Activity entry in [39] is listed as “Non-Toxic”.

Values taken from ChEMBL document CHEMBL5375952, “Discovery of Novel 8-Hydroxyquinoline Derivatives with Potent In Vitro and In Vivo Antifungal Activity” (J Med Chem, 2023).
